The values below come from US20240400546A1, “COMPOUNDS AND USES THEREOF” (JANSSEN PHARMACEUTICA NV, priority 2016, published 2024).

This assay concerns the target T1, SCD1 (Homo sapiens, UniProt O00767).
T1 construct: host or cells: S. cerevisiae ole1Δ strain, plasmid pRS316 with TDH3 promoter and CYC1 terminator
T1 sequence (O00767 1-359): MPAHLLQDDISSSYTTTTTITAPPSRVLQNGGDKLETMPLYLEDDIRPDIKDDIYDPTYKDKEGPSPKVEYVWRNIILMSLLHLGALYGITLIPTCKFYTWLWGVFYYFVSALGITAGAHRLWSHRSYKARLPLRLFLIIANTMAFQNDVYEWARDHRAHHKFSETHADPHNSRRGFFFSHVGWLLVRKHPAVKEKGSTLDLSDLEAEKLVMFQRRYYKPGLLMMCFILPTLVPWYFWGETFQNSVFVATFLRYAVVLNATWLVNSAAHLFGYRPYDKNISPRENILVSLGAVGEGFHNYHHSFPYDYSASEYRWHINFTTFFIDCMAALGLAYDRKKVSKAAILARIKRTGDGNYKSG
Put plainly: Growth inhibition of humanized yeast expressing SCD1 as sole desaturase. It counts as cell-based. The procedure:
Strain ole1Δ (yeast ole1 deletion mutant) was constructed by deleting OLE1 with NAT-MX6 in BY4741, amplifying the deletion cassette from the genomic DNA of the resulting strain with primers flanking the ORF by 1000 bp upstream and downstream, transforming the resulting deletion cassette into W303 pdr1Δ pdr3Δ, and plating transformants on YPD media containing G418 (200 μg/mL) and nourseothricin (100 μg/mL) with 0.01% TWEEN®-20 and 0.5 mM oleic and palmitoleic acids.
The coding sequence of yeast OLE1 was also cloned into this plasmid). These clones were then transformed into the ole1Δ strain and plated on CSM-Ura media (CSM lacking uracil) with 2% glucose (w/v) and independent colonies were isolated and amplified.
All compound profiling experiments were performed using the same basic protocol. Different genetic backgrounds (e.g., gene deletions) or conditions (e.g., addition of oleic and palmitoleic acid) were replaced as indicated below.
Yeast were cultured using standard techniques in complete synthetic media (CSM) and yeast nitrogen base supplemented with 2% (w/v) carbon source (glucose, raffinose, or galactose) to regulate the expression of the toxic disease protein. An initial starter culture was inoculated in 3 mL CSM-Glucose media and incubated overnight in a 30° C. shaker incubator (225 rpm). Saturated morning cultures were then diluted 1:20 in fresh CSM-Raffinose media and grown for 6 h to an OD600 (optical density) of ˜0.4-0.8 at 30° C. with shaking.
Compound administration was performed in two separate steps. First, 15 μL of CSM-Galactose (induces expression of toxic protein) was dispensed into clear 384 well assay plates using a MULTIDROP™ Combi reagent dispenser. […] The cultures described above were then diluted to a 2× concentration (0.03 and 0.08 for alpha-synuclein and ApoE, final OD600 of 0.015 and 0.04) in CSM-Galactose. For wild-type and Ole1/SCD1/SCD5 plasmid-containing strains, the 2× cell density was 0.02. […] For 96-well assays (FIGS. 1A and 1B), compound dilutions in DMSO were generated in 96 well plates and 1 μL was manually pipetted into 96 well clear bottom assay plates.
For experiments using a plasmid-borne copy of Ole1, SCD1, or SCD5 (FIGS. 3B, 6, and 7), media lacking uracil (SX-Ura, where X is glucose, raffinose, or galactose), was used for all steps of the compound profiling protocol to ensure its maintenance throughout the assay.
After yeast delivery, assay plates were incubated under humidified conditions at 30° C. for 24 to 40 h. ApoE4 rescue experiments were stopped at 24 h, aSyn experiments at 40 h, Ole1 at 24 h, and SCD1/SCD5 at 40 h. The growth of yeast was monitored by reading the OD600 of each well using a microplate reader (Perkin Elmer EnVision™).

Where [1] appears, read: humanized yeast expressing human SCD1.
[2] abbreviates: humanized yeast expressing SCD1.

By IC50 is commonly meant the concentration that inhibits the measured activity by half. Read a low IC50 as greater potency in that assay.

Consider `Cc1nn(C)c2cc(-c3noc(C4CCN(C(=O)CNC(=O)c5ccc(C(F)(F)F)cc5)CC4)n3)ccc12` [Compound 317], for which the IC50 under setting [1] is above 45 µM.

In the case of `Cc1ccc(-c2nc(C3CCN(C(=O)C4CC(=O)N(c5ccc(C)c(C)c5)C4)CC3)no2)cc1` (stereo not drawn) [Compound 50], under setting [2], 41 µM corresponded to half-maximal inhibition (IC50).

With `Cc1nn(C)c2cc(-c3noc(N4CCN(C(=O)c5cccc(F)c5)CC4)n3)ccc12` [Compound 270], the half-maximal inhibitory concentration (IC50) under setting [1] was above 45 µM.

As for `CC(=O)N1CCC2(CC1)CN(c1nc(-c3ccc4cnn(C(C)C)c4c3)no1)C2` [Compound 571], the IC50 under setting [1] was above 45 µM.

Consider `COc1cc(-c2noc(C3CCN(C(=O)CNC(=O)c4ccccc4)CC3)n2)ccc1OC(F)(F)F` [Compound 253], for which the half-inhibitory concentration (IC50) under setting [1] was above 45 µM.

As to `Cc1nn(C)c2cc(-c3noc(C4CCN(C(=O)N[C@@H]5C[C@@H]5c5ccccc5)CC4)n3)ccc12` [Compound 329], under setting [1], the IC50 is above 45 µM.

For the compound `Cc1nn(C)c2cc(-c3noc(N4CCN(C(=O)N5CCCCC5)CC4)n3)ccc12` [Compound 327], the IC50 under setting [1] was above 45 µM.

Under setting [1], `Cc1c2ccc(-c3noc(C4CCN(C(=O)CNC(=O)c5ccccc5)CC4)n3)cc2nn1C(C)C` [Compound 289] registered a 50% inhibitory concentration (IC50) above 45 µM.

`COC(=O)N1CCC(c2nc(-c3ccc4c(C)nn(C)c4c3)no2)CC1` [Compound 273]: the IC50 under setting [1] was above 45 µM.

Consider `CCN(Cc1nc(-c2ccc(OC)c(OC)c2)no1)C(=O)Cc1ccccc1` [Compound 492], for which the concentration for half-maximal inhibition (IC50) under setting [2] is above 45 µM.

In the case of `CC(C)n1ncc2ccc(-c3noc(C4=C(F)CN(C(=O)OC(C)(C)C)CC4)n3)cc21` [Compound 510], the IC50 under setting [1] was above 45 µM.

In turn, `CC(C)n1ncc2ccc(-c3noc(C4CCN(C(=O)c5nccs5)CC4)n3)cc21` [Compound 549] yielded an IC50 under setting [1] above 45 µM.

`CC(C)n1ncc2ccc(-c3nc(C4CCN(C(=O)CC5(C)CC5)CC4)no3)cc21` [Compound 546] returned an IC50 under setting [1] above 45 µM.

For `COC(=O)N[C@H]1CC[C@@H](c2nc(-c3ccc4c(C)nn(C)c4c3)no2)CC1` [Compound 550], the IC50 under setting [1] is above 45 µM.

As for `Cc1nn(C)c2cc(-c3noc(C4CN(C(=O)OC(C)(C)C)C4)n3)ccc12` [Compound 365], the half-maximal inhibitory concentration (IC50) under setting [1] was above 45 µM.

As to `COc1ccc(-c2noc(C3CCNCC3)n2)cc1OC` [Compound 488], the half-maximal inhibitory concentration (IC50) under setting [2] was above 45 µM.

Under setting [1], `Cc1nn(C)c2cc(-c3noc(C4CCN(c5nc(C(C)C)no5)CC4)n3)ccc12` [Compound 581] came in with a half-maximal inhibitory concentration (IC50) above 45 µM.

On to `CC(C)n1ncc2ccc(-c3noc([C@H]4CC[C@H](N)CC4)n3)cc21` [Compound 596], for which the half-inhibitory concentration (IC50) under setting [1] was above 45 µM.

For `CC(C)n1ncc2ccc(-c3noc(C4CCN(C(=O)c5ccsc5Cl)CC4)n3)cc21` [Compound 575], the concentration for half-maximal inhibition (IC50) under setting [1] was above 45 µM.

On to `CCNCc1nc(-c2ccc3c(c2)N(CC)C(=O)CO3)no1` [Compound 493], for which, under setting [2], the IC50 is above 45 µM.

In turn, `Cc1nn(C(C)C)c2cc(-c3noc(C4CCN(C(=O)OC(C)(C)C)CC4)n3)ccc12` [Compound 343] displayed a half-maximal inhibitory concentration (IC50) under setting [1] above 45 µM.

`C[C@@H](O)C(=O)N1CCC(c2nc(-c3ccc4cnn(C5COC5)c4c3)no2)CC1` [Compound 597] displayed an IC50 under setting [1] above 45 µM.

The compound `Cc1nn(C)c2cc(-c3nsc(C4CCN(C(=O)OC(C)(C)C)CC4)n3)ccc12` [Compound 503] had an IC50 under setting [1] above 45 µM.

As for `Cc1nn(C)c2cc(-c3noc(C4CCN(C(=O)c5cc(F)ccc5C(F)(F)F)CC4)n3)ccc12` [Compound 292], the concentration for half-maximal inhibition (IC50) under setting [1] is above 45 µM.

In the case of `CCn1nc(C)c2ccc(-c3noc(C4CCN(C(=O)OC(C)(C)C)CC4)n3)cc21` [Compound 301], under setting [1], the IC50 was above 45 µM.

For `O=C(c1ccccc1Cl)N1CCC(c2nc(-c3ccc4cnn(C5COC5)c4c3)no2)CC1` [Compound 562], the IC50 under setting [1] is above 45 µM.

Compound `CCN1C(=O)COc2ccc(-c3noc(C4(c5ccc(OC)cc5)CC4)n3)cc21` [Compound 491] yielded an IC50 under setting [2] above 45 µM.

`CC(C)n1ncc2ccc(-c3noc(C4CCN(C(=O)c5cscn5)CC4)n3)cc21` [Compound 573] registered a concentration for half-maximal inhibition (IC50) under setting [1] above 45 µM.

With `CC(C)n1ncc2ccc(-c3noc(N4C[C@H]5CN(C(=O)CC(C)(C)C)C[C@H]5C4)n3)cc21` [Compound 497], the 50% inhibitory concentration (IC50) under setting [1] is above 45 µM.

Compound `CCN1C(=O)CN(C)c2cc(-c3noc(C4CCN(C(=O)CNC(=O)c5ccccc5)CC4)n3)ccc21` [Compound 310] gave a half-maximal inhibitory concentration (IC50) under setting [1] above 45 µM.

`CC(C)n1ncc2ccc(-c3noc([C@@H]4[C@@H]5CN(C(=O)OC(C)(C)C)C[C@@H]54)n3)cc21` [Compound 498] came in with a half-inhibitory concentration (IC50) under setting [1] above 45 µM.

With `Cc1nn(C)c2cc(-c3noc(N4CCN(C(=O)c5cc(F)ccc5Cl)CC4)n3)ccc12` [Compound 278], under setting [1], the IC50 was above 45 µM.

For `O=C(c1ccccc1)N1CCC(c2nc(N3CC4(COC4)C3)no2)CC1` [Compound 334], under setting [1], the IC50 is above 45 µM.

Consider `CC(C)n1ncc2ccc(-c3noc([C@H]4CC[C@H](NC(=O)OC(C)(C)C)CC4)n3)cc21` [Compound 537], for which the IC50 under setting [1] was above 45 µM.

In turn, `COc1ccc(S(=O)(=O)N2CCC(c3nc(-c4ccc5cnn(C(C)C)c5c4)no3)CC2)c(Br)c1` [Compound 539] yielded an IC50 under setting [1] above 45 µM.

Under setting [1], `CC(=O)N[C@H]1CC[C@H](c2nc(-c3ccc4cnn(C(C)C)c4c3)no2)CC1` [Compound 535] showed an IC50 above 45 µM.

Compound `CCOC(=O)N1CCC(c2nc(-c3ccc4cnn(C(C)C)c4c3)no2)CC1` [Compound 361] yielded an IC50 under setting [1] above 45 µM.

The compound `CC(C)n1ncc2ccc(-c3nc(C4CCN(C(=O)c5ccc(Cl)cc5)CC4)no3)cc21` [Compound 505] yielded an IC50 under setting [1] above 45 µM.

On to `Cc1nn(C)c2cc(-c3noc(C4CCN(S(=O)(=O)C(C)C)CC4)n3)ccc12` [Compound 279], for which, under setting [1], the half-maximal inhibitory concentration (IC50) was above 45 µM.

Under setting [1], `N#Cc1ccc(-c2noc(C3CCN(C(=O)[C@H]4CC(=O)N(c5ccccc5)C4)CC3)n2)s1` [Compound 247] displayed a half-maximal inhibitory concentration (IC50) above 45 µM.

As to `COc1ccc(-c2noc(C3CCN(C(=O)CNC(=O)c4ccccc4)CC3)n2)cc1OC(C)C` [Compound 274], the IC50 under setting [1] was above 45 µM.

Compound `CC(C)n1ncc2ccc(-c3noc(N4CCN(C(=O)OCC(F)(F)F)CC4)n3)cc21` [Compound 593] had an IC50 under setting [1] above 45 µM.

Under setting [1], `CC(C)n1ncc2ccc(-c3noc([C@H]4CC[C@@H](N)CC4)n3)cc21` [Compound 536] displayed an IC50 above 45 µM.

Consider `Cc1nn(C)c2cc(-c3noc(N4CCN(C(=O)c5ccccc5Cl)CC4)n3)ccc12` [Compound 262], for which the half-maximal inhibitory concentration (IC50) under setting [1] is above 45 µM.

Under setting [1], `Cc1nn(C)c2cc(-c3noc(C4CCN(C(=O)c5cccc(F)c5)CC4)n3)ccc12` [Compound 284] had a 50% inhibitory concentration (IC50) above 45 µM.

In the case of `CC1(C)CC(=O)c2c(O)cc(OCC(=O)NCCc3nc(-c4ccccc4)no3)cc2O1` [Compound 487], the IC50 under setting [2] is above 45 µM.

In turn, `CC(C)n1ncc2cc(-c3noc(C4CCN(C(=O)CNC(=O)c5ccccc5)CC4)n3)ccc21` [Compound 228] registered an IC50 under setting [2] of 41 µM.

Compound `CC(C)n1ncc2ccc(-c3noc(N4CCN(C(=O)CC5(C)CC5)CC4)n3)cc21` [Compound 495] had an IC50 under setting [1] above 45 µM.

Under setting [1], `Cc1nn(C)c2cc(-c3noc(C4CCN(C(=O)NC(C)(C)C)CC4)n3)ccc12` [Compound 282] had an IC50 above 45 µM.

Under setting [1], `O=C(c1ccccc1)N1CCC(c2nc(-c3ccc4cnn(C5COC5)c4c3)no2)CC1` [Compound 564] showed an IC50 above 45 µM.

Under setting [1], `Cc1nn(C)c2cc(-c3noc(N4CCN(C(=O)[C@H]5CC(=O)N(c6ccccc6)C5)CC4)n3)cnc12` [Compound 246] had an IC50 above 45 µM.

In the case of `Cc1nn(C)c2cc(-c3noc(C4CCN(C(=O)CNC(=O)c5cc(Cl)ccc5C(F)(F)F)CC4)n3)ccc12` [Compound 328], the 50% inhibitory concentration (IC50) under setting [1] was above 45 µM.

`Cc1nn(C)c2cc(-c3noc(C4CCN(C(=O)c5ccccc5Cl)CC4)n3)ccc12` [Compound 288] showed an IC50 under setting [1] above 45 µM.

Take `Cc1nn(C)c2cc(-c3noc(C4CCN(C(=O)N5CCOCC5)CC4)n3)ccc12` [Compound 311]: the IC50 under setting [1] was above 45 µM.
